Source: patent US12577242B2, “Pyrrolopyridine and imidazopyridine antiviral compounds” (KATHOLIEKE UNIVERSITEIT LEUVEN, priority 2020, dated 2026)

What was measured:
[1] = tested on: Bovine viral diarrhea (BVD) virus; assay: Anti-BVDV CPE inhibition assay in MDBK cells; conditions: for EC50: Bovine viral diarrhea virus isolates and strains, MDBK, in Bos taurus, 96 h; for SI (selectivity index, ratio of CC50 and EC50): CC50/EC50, MDBK cells, BVD virus
[2] = Cytotoxicity in MDBK cells (no BVD virus added); conditions: bovine, MDBK cells (Madin-Darby bovine kidney), no virus added

| Structure (SMILES) | EC50 [1] [nM] | SI (selectivity index, ratio of CC50 and EC50) [1] | CC50 at 4 days [2] [nM] |
| --- | --- | --- | --- |
| Cc1ccc2sc(Cn3ccc4nc(-c5cnn(C)c5C)nc-4c3)nc2c1 [CPD-2, 2-((2-(1,5-dimethyl-1H-pyrazol-4-yl)-5H-imidazo[4,5-c]pyridin-5-yl)methyl)-5-methylbenzo[d]thiazole] | 79 ± 4 | >633 | > 50000 |
| Cc1c(-c2nc3ccn(Cc4nc5ccccc5s4)cc-3n2)cnn1C [CPD-3, 2-((2-(1,5-dimethyl-1H-pyrazol-4-yl)-5H-imidazo[4,5-c]pyridin-5-yl)methyl)benzo[d]thiazole] | 78 ± 5 | >641 | > 50000 |
| Cc1c(-c2nc3ccn(Cc4nc5cc(Cl)ccc5s4)cc-3n2)cnn1C [CPD-4, 5-chloro-2-((2-(1,5-dimethyl-1H-pyrazol-4-yl)-5H-imidazo[4,5-c]pyridin-5-yl)methyl)benzo[d]thiazole] | 84 ± 3 | >595 | > 50000 |
| Cc1c(-c2nc3ccn(Cc4nc5ccc(Cl)cc5s4)cc-3n2)cnn1C [CPD-5, 6-chloro-2-((2-(1,5-dimethyl-1H-pyrazol-4-yl)-5H-imidazo[4,5-c]pyridin-5-yl)methyl)benzo[d]thiazole] | 27 ± 27 | >1852 | > 50000 |
| Cc1c(-c2nc3ccn(Cc4nc5ccc6ccccc6c5s4)cc-3n2)cnn1C [CPD-6, 2-((2-(1,5-dimethyl-1H-pyrazol-4-yl)-5H-imidazo[4,5-c]pyridin-5-yl)methyl)naphtho[2,1-d]thiazole] | 14 ± 1 | >3571 | > 50000 |
| Cc1ccc2oc(Cn3ccc4nc(-c5cnn(C)c5C)nc-4c3)nc2c1 [CPD-8, 2-((2-(1,5-dimethyl-1H-pyrazol-4-yl)-5H-imidazo[4,5-c]pyridin-5-yl)methyl)-5-methylbenzo[d]oxazole] | 79 ± 4 | >633 | > 50000 |
| Cc1c(-c2nc3ccn(Cn4nnc5ccccc54)cc-3n2)cnn1C [CPD-9, 1-((2-(1,5-dimethyl-1H-pyrazol-4-yl)-5H-imidazo[4,5-c]pyridin-5-yl)methyl)-1H-benzo[d][1,2,3]triazole] | 346 ± 86 | 64 | 22000 |
| Cc1ccc2sc(Cn3ccc4nc(-c5cn(C)nc5C)nc-4c3)nc2c1 [CPD-11, 2-((2-(1,3-dimethyl-1H-pyrazol-4-yl)-5H-imidazo[4,5-c]pyridin-5-yl)methyl)-5-methylbenzo[d]thiazole] | 300 ± 100 | >167 | > 50000 |
| Cc1ccc2oc(Cn3ccc4nc(-c5cn(C)nc5C)nc-4c3)nc2c1 [CPD-12, 2-((2-(1,3-dimethyl-1H-pyrazol-4-yl)-5H-imidazo[4,5-c]pyridin-5-yl)methyl)-5-methylbenzo[d]oxazole] | 256 ± 111 | >195 | > 50000 |
| Cc1nn(C)c(C)c1-c1nc2ccn(Cc3cc(-c4cc(F)ccc4F)no3)cc-2n1 [CPD-13, 3-(2,5-difluorophenyl)-5-((2-(1,3,5-trimethyl-1H-pyrazol-4-yl)-5H-imidazo[4,5-c]pyridin-5-yl)methyl)isoxazole] | 95 ± 22 | >526 | > 50000 |
| COc1ncccc1-c1nc2ccn(Cc3nc4ccc(C)cc4s3)cc-2n1 [CPD-14, 2-((2-(2-methoxypyridin-3-yl)-5H-imidazo[4,5-c]pyridin-5-yl)methyl)-6-methylbenzo[d]thiazole] | 20 ± 4 | >2500 | > 50000 |
| COc1ncccc1-c1nc2ccn(Cc3nc4cc(C)ccc4s3)cc-2n1 [CPD-15, 2-((2-(2-methoxypyridin-3-yl)-5H-imidazo[4,5-c]pyridin-5-yl)methyl)-5-methylbenzo[d]thiazole] | 86 ± 4 | >581 | > 50000 |
| COc1ncccc1-c1nc2ccn(Cc3nc4cc(C)ccc4o3)cc-2n1 [CPD-16, 2-((2-(2-methoxypyridin-3-yl)-5H-imidazo[4,5-c]pyridin-5-yl)methyl)-5-methylbenzo[d]oxazole] | 117 | >427 | > 50000 |
| COc1ncccc1-c1nc2ccn(Cc3cc(-c4cc(F)ccc4F)no3)cc-2n1 [CPD-17, 3-(2,5-difluorophenyl)-5-((2-(2-methoxypyridin-3-yl)-5H-imidazo[4,5-c]pyridin-5-yl)methyl)isoxazole] | 72 ± 2 | 1389 | 100000 |
| COc1ccccc1-c1nc2ccn(Cc3nc4ccc(C)cc4s3)cc-2n1 [CPD-18, 2-((2-(2-methoxyphenyl)-5H-imidazo[4,5-c]pyridin-5-yl)methyl)-6-methylbenzo[d]thiazole] | 2 ± 1 | 10000 | 20000 |
| COc1ccccc1-c1nc2ccn(Cc3cc(-c4cc(F)ccc4F)no3)cc-2n1 [CPD-19, 3-(2,5-difluorophenyl)-5-((2-(2-methoxyphenyl)-5H-imidazo[4,5-c]pyridin-5-yl)methyl)isoxazole] | 4 ± 1 | 4750 | 19000 |

| Structure (SMILES) | EC50 [1] [nM] | SI (selectivity index, ratio of CC50 and EC50) [1] | CC50 at 4 days [2] [nM] |
| --- | --- | --- | --- |
| COc1ccccc1-c1nc2ccn(Cn3nnc4ccccc43)cc-2n1 [CPD-20, 1-((2-(2-methoxyphenyl)-5H-imidazo[4,5-c]pyridin-5-yl)methyl)-1H-benzo[d][1,2,3]triazole] | 87 ± 3 | >575 | > 50000 |
| Cc1ccc2nc(Cn3ccc4nc(-c5ccccc5OC(F)F)nc-4c3)sc2c1 [CPD-21, 2-((2-(2-(difluoromethoxy)phenyl)-5H-imidazo[4,5-c]pyridin-5-yl)methyl)-6-methylbenzo[d]thiazole] | 409 | 76 | 31000 |
| Cc1ccc2nc(Cn3ccc4nc(-c5ccccc5F)nc-4c3)sc2c1 [CPD-22, 2-((2-(2-fluorophenyl)-5H-imidazo[4,5-c]pyridin-5-yl)methyl)-6-methylbenzo[d]thiazole] | 19 ± 5 | >5263 | > 100000 |
| Cc1ccc2sc(Cn3ccc4nc(-c5ccccc5F)nc-4c3)nc2c1 [CPD-23, 2-((2-(2-fluorophenyl)-5H-imidazo[4,5-c]pyridin-5-yl)methyl)-5-methylbenzo[d]thiazole] | 84 ± 29 | >595 | > 50000 |
| Fc1ccccc1-c1nc2ccn(Cc3nc4ccccc4s3)cc-2n1 [CPD-24, 2-((2-(2-fluorophenyl)-5H-imidazo[4,5-c]pyridin-5-yl)methyl)benzo[d]thiazole] | 299 ± 91 | >167 | > 50000 |
| Fc1ccccc1-c1nc2ccn(Cc3nc4ccc(Cl)cc4s3)cc-2n1 [CPD-25, 6-chloro-2-((2-(2-fluorophenyl)-5H-imidazo[4,5-c]pyridin-5-yl)methyl)benzo[d]thiazole] | 78 ± 4 | >641 | > 50000 |
| Fc1ccccc1-c1nc2ccn(Cc3nc4cc(Cl)ccc4s3)cc-2n1 [CPD-26, 5-chloro-2-((2-(2-fluorophenyl)-5H-imidazo[4,5-c]pyridin-5-yl)methyl)benzo[d]thiazole] | 96 ± 6 | >521 | > 50000 |
| OCc1ccc2nc(Cn3ccc4nc(-c5ccccc5F)nc-4c3)sc2c1 [CPD-27, (2-((2-(2-fluorophenyl)-5H-imidazo[4,5-c]pyridin-5-yl)methyl)benzo[d]thiazol-6-yl)methanol] | 366 | >137 | > 50000 |
| Fc1ccccc1-c1nc2ccn(Cc3ncc(-c4ccccc4)s3)cc-2n1 [CPD-28, 2-((2-(2-fluorophenyl)-5H-imidazo[4,5-c]pyridin-5-yl)methyl)-5-phenylthiazole] | 82 | >610 | > 50000 |
| Fc1ccccc1-c1nc2ccn(Cc3ccc(Cl)s3)cc-2n1 [CPD-30, 5-((5-chlorothiophen-2-yl)methyl)-2-(2-fluorophenyl)-5H-imidazo[4,5-c]pyridine] | 129 ± 61 | >388 | > 50000 |
| Cc1ccc2oc(Cn3ccc4nc(-c5ccccc5F)nc-4c3)nc2c1 [CPD-31, 2-((2-(2-fluorophenyl)-5H-imidazo[4,5-c]pyridin-5-yl)methyl)-5-methylbenzo[d]oxazole] | 306 ± 98 | >163 | > 50000 |
| Cc1ccc2nc(Cn3ccc4nc(-c5ccccc5F)nc-4c3)oc2c1 [CPD-32, 2-((2-(2-fluorophenyl)-5H-imidazo[4,5-c]pyridin-5-yl)methyl)-6-methylbenzo[d]oxazole] | 377 ± 16 | >133 | > 50000 |
| COc1ccc2oc(Cn3ccc4nc(-c5ccccc5F)nc-4c3)nc2c1 [CPD-33, 2-((2-(2-fluorophenyl)-5H-imidazo[4,5-c]pyridin-5-yl)methyl)-5-methoxybenzo[d]oxazole] | 447 | >112 | > 50000 |
| Fc1ccc(-c2cc(Cn3ccc4nc(-c5ccccc5F)nc-4c3)on2)c(F)c1 [CPD-34, 3-(2,4-difluorophenyl)-5-((2-(2-fluorophenyl)-5H-imidazo[4,5-c]pyridin-5-yl)methyl)isoxazole] | 92 ± 49 | >543 | > 50000 |
| Fc1ccc(F)c(-c2cc(Cn3ccc4nc(-c5ccccc5F)nc-4c3)on2)c1 [CPD-35, 3-(2,5-difluorophenyl)-5-((2-(2-fluorophenyl)-5H-imidazo[4,5-c]pyridin-5-yl)methyl)isoxazole] | 75 ± 24 | >667 | > 50000 |
